In article PMC6269792, “Arylsulfonylamino-Benzanilides as Inhibitors of the Apical Sodium-Dependent Bile Salt Transporter (SLC10A2)” (Molecules, 2013):

How the values were obtained:
Human ASBT = molecular target: T1, Human ASBT (Homo sapiens, UniProt Q12908); experiment: ASBT inhibition assay: [3H]-taurocholic acid uptake in HEK293T cells transiently transfected with human ASBT; format: cell-based; details: for inhibition at 10 µM: HEK-293T; for IC50: inhibitor concentration that gives 50% taurocholate uptake compared to no inhibitor control
T1 construct: expressed in transfected cells; host or cells: HEK293T
T1 sequence (Q12908 1-348): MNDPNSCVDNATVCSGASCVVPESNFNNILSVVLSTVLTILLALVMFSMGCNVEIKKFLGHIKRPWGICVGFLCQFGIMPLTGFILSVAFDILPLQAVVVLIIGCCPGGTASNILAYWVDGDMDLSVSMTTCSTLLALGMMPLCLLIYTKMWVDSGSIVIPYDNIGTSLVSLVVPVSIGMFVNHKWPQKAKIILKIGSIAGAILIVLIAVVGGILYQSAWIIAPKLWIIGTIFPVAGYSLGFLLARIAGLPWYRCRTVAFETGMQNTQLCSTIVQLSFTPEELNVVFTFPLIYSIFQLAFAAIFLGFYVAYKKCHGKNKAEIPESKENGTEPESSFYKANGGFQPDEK
Protocol: In vitro inhibitory activity of all target compounds against ASBT was evaluated using a radioisotope-based assay. All the newly synthesized derivatives were initially tested at 10 μM concentration (Table 1).
HEK293T was obtained from the American Type Culture Collection (Manassas, VA, USA), and grown in MEM supplemented with 100 U/mL penicillin and […] streptomycin and 10% heat-inactivated fetal bovine serum. Human ASBT expression construct was prepared as previously described. HEK293T cells were seeded in 12 well plates and transiently transfected with 0.5 μg/well pcDNA3.1/ASBT or negative control plasmid pcDNA3.1 using lipofactamine 2000 (Invitrogen, Carlsbad, CA, USA) according to the manufacturer’s instructions. Twenty-four hours after transfection, HEK293T cells were assayed for taurocholic acid uptake as previously described with minor modifications. […] To terminate the transport process, the plates were chilled on ice and the cells were immediately washed with ice-cold buffer three times. Cells were lysed with 0.3 mL lysis buffer (0.5% triton x-100) and shaken vigorously for 20 min. The radioactivity of the cell lysate was counted using a MicroBeta^2 Liquid Scintillation and Luminescence Counter (PerkinElmer Life Sciences). Protein concentration of the lysate was used to normalize uptake activity.
The inhibition rate was calculated using the following formula: Inhibition Rate (%) = [(1 − (A − C)/(B − C)] × 100
A, [^3H] uptake value of test compound in [^3H]-TCA buffer added to pcDNA3.1/ASBT transfected cells; B, [^3H] uptake value of DMSO (without inhibitor) in [^3H]-TCA buffer added to pcDNA3.1/ASBT transfected cells; C, [^3H] uptake value of Blank sample (DMSO) in [^3H]-TCA buffer added to empty vector (pcDNA3.1) transfected cells.

ASBT = details: read-out: IC50 against ASBT; cited from earlier work

Row | SMILES | melting point | inhibition at 10 µM (Human ASBT) | IC50 (Human ASBT) | IC50 (ASBT)
1 | Cc1ccc(NC(=O)c2ccccc2NS(=O)(=O)c2cccc(F)c2)cc1C(F)(F)F [Compound 5e3, 2-(3-Fluorophenylsulfonamido)-N-(4-methyl-3-(trifluoromethyl)phenyl)benzamide] | 168.8 to 169.6 °C | 57.6 ± 2.9% | – | –
2 | O=C(Nc1cccc(OC(F)(F)F)c1)c1ccccc1NS(=O)(=O)c1cccc(OC(F)(F)F)c1 [Compound 5g4, N-(3-(Trifluoromethoxy)phenyl)-2-(3-(trifluoromethoxy)phenylsulfonamido)benzamide] | 169.1 to 170.4 °C | 88.1 ± 2.7% | 1030 ± 160 nM | –
3 | O=C(Nc1ccc(Cl)c(Cl)c1)c1ccc(NS(=O)(=O)c2cccc([N+](=O)[O-])c2)cc1 [Compound 5c2, N-(3,4-Dichlorophenyl)-4-(3-nitrophenylsulfonamido)benzamide] | 189.2 to 190.5 °C | 34.8 ± 3.7% | – | –
4 | O=C(Nc1ccc(Cl)c(Cl)c1)c1ccccc1NS(=O)(=O)c1cccc([N+](=O)[O-])c1 [Compound 5a1, N-(3,4-Dichlorophenyl)-2-(3-nitrophenylsulfonamido)benzamide] | – | – | – | 4000 nM
5 | COc1cccc(S(=O)(=O)Nc2ccccc2C(=O)Nc2ccc(Cl)cc2Cl)c1 [Compound 5f1, N-(2,4-Dichlorophenyl)-2-(3-methoxyphenylsulfonamido)benzamide] | 138.8 to 139.7 °C | 21.2 ± 3% | – | –
6 | O=C(Nc1cccc(OC(F)(F)F)c1)c1ccccc1NS(=O)(=O)c1cccc([N+](=O)[O-])c1 [Compound 5a4, 2-(3-Nitrophenylsulfonamido)-N-(3-(trifluoromethoxy)phenyl)benzamide] | 141.4 to 142 °C | 83.8 ± 3.4% | 1230 ± 120 nM | –
7 | Cc1ccc(NC(=O)c2ccccc2NS(=O)(=O)c2cccc([N+](=O)[O-])c2)cc1C(F)(F)F [Compound 5a10, N-(4-Methyl-3-(trifluoromethyl)phenyl)-2-(3-nitrophenylsulfonamido)benzamide] | 166.4 to 167.4 °C | 90.7 ± 4.2% | 1490 ± 90 nM | –
8 | O=C(Nc1ccc(Cl)c(Cl)c1)c1cccc(NS(=O)(=O)c2cccc([N+](=O)[O-])c2)c1 [Compound 5b3, N-(3,4-dichlorophenyl)-3-(3-nitrophenylsulfonamido)benzamide] | 192.5 to 193.7 °C | 62.4 ± 2.9% | – | –
9 | O=C(Nc1cc(F)cc(F)c1)c1ccccc1NS(=O)(=O)c1cccc([N+](=O)[O-])c1 [Compound 5a5, N-(3,5-Difluorophenyl)-2-(3-nitrophenylsulfonamido)benzamide] | 181.1 to 181.9 °C | 21.6 ± 4.1% | – | –
10 | O=C(Nc1cccc(OC(F)F)c1)c1ccccc1NS(=O)(=O)c1ccc([N+](=O)[O-])cc1 [Compound 5d4, N-(3-(Difluoromethoxy)phenyl)-2-(4-nitrophenylsulfonamido)benzamide] | 203.9 to 205 °C | 58.8 ± 4.3% | – | –
11 | O=C(Nc1ccc(Cl)c(Cl)c1)c1ccccc1NS(=O)(=O)c1cccc(F)c1 [Compound 5e5, N-(3,4-Dichlorophenyl)-2-(3-fluorophenylsulfonamido)benzamide] | 179.1 to 180.6 °C | 40.6 ± 2.8% | – | –
12 | O=C(Nc1ccc(F)c(Cl)c1)c1ccccc1NS(=O)(=O)c1cccc([N+](=O)[O-])c1 [Compound 5a2, N-(3-Chloro-4-fluorophenyl)-2-(3-nitrophenylsulfonamido)benzamide] | 203.4 to 204.1 °C | 95.4 ± 3.3% | 1320 ± 280 nM | –
13 | O=C(Nc1ccc(Cl)cc1Cl)c1ccccc1NS(=O)(=O)c1ccc([N+](=O)[O-])cc1 [Compound 5d1, N-(2,4-Dichlorophenyl)-2-(4-nitrophenylsulfonamido)benzamide] | 220.6 to 221.3 °C | 66.9 ± 3.5% | – | –
14 | O=C(Nc1cc(Cl)cc(Cl)c1)c1ccccc1NS(=O)(=O)c1cccc([N+](=O)[O-])c1 [Compound 5a7, N-(3,5-Dichlorophenyl)-2-(3-nitrophenylsulfonamido)benzamide] | 209.9 to 210.4 °C | 56.3 ± 2.8% | – | –
15 | O=C(Nc1ccc(F)c(Cl)c1)c1ccccc1NS(=O)(=O)c1cccc(F)c1 [Compound 5e2, N-(3-Chloro-4-fluorophenyl)-2-(3-fluorophenylsulfonamido)benzamide] | 178.6 to 179.9 °C | 63.2 ± 3.8% | – | –
16 | O=C(Nc1ccc(Cl)cc1Cl)c1ccccc1NS(=O)(=O)c1cccc(F)c1 [Compound 5e1, N-(2,4-Dichlorophenyl)-2-(3-fluorophenylsulfonamido)benzamide] | 146.3 to 147.6 °C | 42.6 ± 3.4% | – | –
17 | Cc1ccc(NC(=O)c2ccccc2NS(=O)(=O)c2cccc(OC(F)(F)F)c2)cc1C(F)(F)F [Compound 5g3, N-(4-Methyl-3-(trifluoromethyl)phenyl)-2-(3-(trifluoromethoxy)phenylsulfonamido)benzamide] | 179.4 to 180.5 °C | 91.8 ± 3.5% | 830 ± 110 nM | –
18 | O=C(Nc1ccc(F)c(Cl)c1)c1ccccc1NS(=O)(=O)c1cccc(OC(F)(F)F)c1 [Compound 5g2, N-(3-Chloro-4-fluorophenyl)-2-(3-(trifluoromethoxy)phenylsulfonamido)benzamide] | 157.3 to 158.6 °C | 98.6 ± 2.6% | 110 ± 50 nM | –
19 | O=C(Nc1ccc(Cl)c(Cl)c1)c1ccccc1NS(=O)(=O)c1ccc([N+](=O)[O-])cc1 [Compound 5d6, N-(3,4-Dichlorophenyl)-2-(4-nitrophenylsulfonamido)benzamide] | 243.4 to 243.6 °C | 73.9 ± 2.2% | – | –
20 | O=C(Nc1cccc(Cl)c1)c1ccccc1NS(=O)(=O)c1cccc([N+](=O)[O-])c1 [Compound 5a9, N-(3-Chlorophenyl)-2-(3-nitrophenylsulfonamido)benzamide] | 167.3 to 168.1 °C | 46.9 ± 3.6% | – | –
21 | COc1cccc(S(=O)(=O)Nc2ccccc2C(=O)Nc2cccc(OC(F)(F)F)c2)c1 [Compound 5f4, 2-(3-Methoxyphenylsulfonamido)-N-(3-(trifluoromethoxy)phenyl)benzamide] | 149.3 to 150.8 °C | 25.8 ± 2.1% | – | –
